According to ChEMBL document CHEMBL1201862, “PubChem BioAssay data set” (2004):
The source made the active and inactive calls.

Key:
[1] = SAR analysis of small molecule activators of Apaf-1 using a LZ-Caspase-9/Caspase-3 Fluorescent Selectivity assay - Set 2.; assay type: functional; conditions: read-out: EC50_Mean
[2] = target: T1, Apoptotic protease-activating factor 1 (Homo sapiens, UniProt O14727); assay: SAR analysis of small molecule Activators of Apaf-1 in a Fluorescent assay - set 2.; assay type: functional; conditions: read-out: EC50_Mean
T1 sequence (O14727 whole entry): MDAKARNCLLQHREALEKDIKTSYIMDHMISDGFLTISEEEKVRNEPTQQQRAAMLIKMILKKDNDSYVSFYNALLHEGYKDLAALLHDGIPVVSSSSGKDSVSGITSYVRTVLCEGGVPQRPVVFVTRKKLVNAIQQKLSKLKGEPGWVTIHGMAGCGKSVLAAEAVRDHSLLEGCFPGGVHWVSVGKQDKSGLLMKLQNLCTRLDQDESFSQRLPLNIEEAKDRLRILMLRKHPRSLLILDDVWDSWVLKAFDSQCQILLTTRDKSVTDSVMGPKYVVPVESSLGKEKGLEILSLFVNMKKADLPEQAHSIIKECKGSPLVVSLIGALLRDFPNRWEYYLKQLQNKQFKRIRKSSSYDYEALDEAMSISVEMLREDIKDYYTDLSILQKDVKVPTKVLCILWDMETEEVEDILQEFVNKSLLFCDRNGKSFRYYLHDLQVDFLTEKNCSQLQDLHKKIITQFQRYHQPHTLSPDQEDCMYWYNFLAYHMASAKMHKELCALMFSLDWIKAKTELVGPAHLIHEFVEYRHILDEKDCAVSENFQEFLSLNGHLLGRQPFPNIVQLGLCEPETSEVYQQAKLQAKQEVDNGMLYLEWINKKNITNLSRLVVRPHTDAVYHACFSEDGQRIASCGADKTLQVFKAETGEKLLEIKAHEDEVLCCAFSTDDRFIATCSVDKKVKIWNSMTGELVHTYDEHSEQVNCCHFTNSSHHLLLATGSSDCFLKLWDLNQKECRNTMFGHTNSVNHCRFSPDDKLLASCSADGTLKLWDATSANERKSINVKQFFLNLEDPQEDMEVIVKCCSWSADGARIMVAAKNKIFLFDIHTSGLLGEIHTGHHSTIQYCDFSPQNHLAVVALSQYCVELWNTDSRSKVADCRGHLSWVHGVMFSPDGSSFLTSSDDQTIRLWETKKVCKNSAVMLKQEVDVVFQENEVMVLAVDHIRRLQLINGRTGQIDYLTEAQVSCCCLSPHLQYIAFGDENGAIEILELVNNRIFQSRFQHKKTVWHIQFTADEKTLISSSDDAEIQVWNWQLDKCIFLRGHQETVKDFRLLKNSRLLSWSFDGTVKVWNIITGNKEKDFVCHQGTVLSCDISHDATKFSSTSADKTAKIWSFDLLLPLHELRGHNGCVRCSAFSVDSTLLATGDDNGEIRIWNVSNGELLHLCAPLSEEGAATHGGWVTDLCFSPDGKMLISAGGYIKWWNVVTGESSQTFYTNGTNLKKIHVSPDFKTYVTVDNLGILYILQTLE

[3] = Shn3 3'UTR reporter inhibitors, dose response, cell-based, Clone20 osteoblasts, firefly luciferase, cherry-picked (AID 624132); assay type: functional;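 also: firefly luciferase luminescence from reporter carrying the Shn3 3'UTR in osteoblasts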
[4] = control 3'UTR Renilla luciferase suppression, dose response, counter-screen for Shn3 inhibitor project, cell-based, Clone20-Shn3RL, cherry-picked (AID 624133); assay type: functional
[5] = target: T2, Replicative DNA helicase DnaB (Mycobacterium tuberculosis, UniProt P9WMR3); assay: DnaB intein splicing inhibitors, dose response, biochemical, cell-free fluorescence (AID 449749); assay type: functional
T2 sequence (P9WMR3 whole entry): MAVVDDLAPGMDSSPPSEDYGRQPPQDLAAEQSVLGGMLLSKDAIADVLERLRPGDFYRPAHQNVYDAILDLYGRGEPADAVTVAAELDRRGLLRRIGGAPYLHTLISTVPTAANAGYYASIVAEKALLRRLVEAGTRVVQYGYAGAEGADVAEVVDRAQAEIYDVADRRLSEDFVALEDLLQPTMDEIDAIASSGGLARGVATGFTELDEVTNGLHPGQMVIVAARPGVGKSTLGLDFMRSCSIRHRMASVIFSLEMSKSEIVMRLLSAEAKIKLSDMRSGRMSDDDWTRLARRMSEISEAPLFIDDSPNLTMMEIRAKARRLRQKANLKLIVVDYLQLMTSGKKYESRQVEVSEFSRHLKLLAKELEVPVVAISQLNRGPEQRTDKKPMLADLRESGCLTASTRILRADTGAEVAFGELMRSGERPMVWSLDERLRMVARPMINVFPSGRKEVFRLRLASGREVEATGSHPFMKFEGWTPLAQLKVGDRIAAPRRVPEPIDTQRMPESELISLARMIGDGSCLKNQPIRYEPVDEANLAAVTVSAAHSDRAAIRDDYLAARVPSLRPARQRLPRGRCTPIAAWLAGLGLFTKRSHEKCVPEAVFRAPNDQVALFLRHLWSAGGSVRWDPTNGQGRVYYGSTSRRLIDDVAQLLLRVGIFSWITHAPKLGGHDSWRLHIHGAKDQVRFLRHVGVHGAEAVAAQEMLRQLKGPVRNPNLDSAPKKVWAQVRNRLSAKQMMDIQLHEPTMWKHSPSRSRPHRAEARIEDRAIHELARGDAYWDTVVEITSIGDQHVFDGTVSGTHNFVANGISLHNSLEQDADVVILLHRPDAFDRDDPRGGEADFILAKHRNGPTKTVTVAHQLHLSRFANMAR

[6] = inhibitors of control Renilla luciferase reporter, dose response, counter-screen for Shn3 3'UTR targeting project, Clone20-Shn3RL cells, dual-Glo, cherry-pick, set 2 (AID 720724); assay type: functional, cell-based; conditions: Dual-Go Shn3RL
[7] = A Cell Based Secondary Assay to Explore Cytotoxicity in THP-1 Cells of Compounds that Modulate Mycobacterium tuberculosis in Media Containing Glycerol versus Media without Glycerol (2).; assay type: functional
[8] = target: T3, Sphingosine 1-phosphate receptor 4 (Homo sapiens, UniProt O95977); assay: Fluorescence dose response cell-based high throughput screening assay for antagonists of the Sphingosine 1-Phosphate Receptor 4 (S1P4). [Related pubchem assays: 1524 (Confirmation in triplicates.), 1510 (Primary screen.)]; assay type: functional
T3 sequence (O95977 whole entry): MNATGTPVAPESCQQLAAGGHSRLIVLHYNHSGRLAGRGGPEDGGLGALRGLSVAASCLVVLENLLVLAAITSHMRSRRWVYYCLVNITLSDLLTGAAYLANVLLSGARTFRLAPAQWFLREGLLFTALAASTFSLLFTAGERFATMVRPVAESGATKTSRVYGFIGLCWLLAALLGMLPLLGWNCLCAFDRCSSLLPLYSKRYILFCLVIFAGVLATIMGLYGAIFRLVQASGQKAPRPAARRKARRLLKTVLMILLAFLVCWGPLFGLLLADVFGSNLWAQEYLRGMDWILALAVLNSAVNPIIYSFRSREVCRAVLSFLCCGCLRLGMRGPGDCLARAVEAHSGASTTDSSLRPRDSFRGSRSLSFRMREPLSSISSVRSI

[9] = HepG2 cell cytotoxicity, dose response, cytotoxicity control for Shn3 inhibitor project, CellTiter-Glo, cherry-picked (AID 624134); assay type: functional, cell-based
[10] = reduction of endogenous Shn3 mRNA, dose response, qPCR, Clone20 cells, cherry-pick (AID 743415); assay type: functional, cell-based
Protein RecA = target: T4, Protein RecA (Mycobacterium tuberculosis, UniProt P9WHJ3); assay: Fluorescence Cell-Free Homogeneous Dose Retest to Identify Inhibitors of RecA-Intein Splicing Activity. [Related pubchem assays (depositor defined):AID2097, AID2223, AID489010, AID492950]; assay type: functional
T4 sequence (P9WHJ3 whole entry): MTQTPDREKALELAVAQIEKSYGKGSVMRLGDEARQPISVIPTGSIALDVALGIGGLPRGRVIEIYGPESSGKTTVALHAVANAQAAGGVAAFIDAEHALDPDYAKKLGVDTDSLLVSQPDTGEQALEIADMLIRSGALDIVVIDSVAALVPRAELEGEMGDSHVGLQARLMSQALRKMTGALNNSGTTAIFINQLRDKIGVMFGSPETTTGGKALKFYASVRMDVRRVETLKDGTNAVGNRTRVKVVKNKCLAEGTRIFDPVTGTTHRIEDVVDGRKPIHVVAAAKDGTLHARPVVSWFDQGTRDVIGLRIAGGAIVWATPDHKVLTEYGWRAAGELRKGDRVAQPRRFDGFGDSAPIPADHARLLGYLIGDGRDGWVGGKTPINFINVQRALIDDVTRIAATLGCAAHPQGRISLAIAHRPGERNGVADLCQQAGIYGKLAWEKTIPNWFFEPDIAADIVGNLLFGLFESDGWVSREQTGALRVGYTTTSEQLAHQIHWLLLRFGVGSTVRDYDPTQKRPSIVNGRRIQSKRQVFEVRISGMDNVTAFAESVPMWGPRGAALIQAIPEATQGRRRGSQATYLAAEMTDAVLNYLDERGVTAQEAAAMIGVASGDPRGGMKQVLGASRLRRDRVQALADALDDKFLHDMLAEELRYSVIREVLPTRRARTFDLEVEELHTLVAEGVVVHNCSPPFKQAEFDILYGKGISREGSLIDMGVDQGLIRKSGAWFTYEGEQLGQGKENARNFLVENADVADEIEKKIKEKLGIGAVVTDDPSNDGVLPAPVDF

Paired box protein Pax-8 = Paired box protein Pax-8 (Homo sapiens, UniProt Q06710); assay: inhibitors of PAX8-driven TPO luciferase reporter, dose response, RMG-I cells, cherry-pick (AID 687027); assay type: functional, cell-based;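 also: luciferase reporter driven by Pax8 target thyroperoxidase promoter measured by SteadyGlo luminescence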
Chain of Paired box protein Pax-8 (Q06710 whole entry, the tested form may be a part): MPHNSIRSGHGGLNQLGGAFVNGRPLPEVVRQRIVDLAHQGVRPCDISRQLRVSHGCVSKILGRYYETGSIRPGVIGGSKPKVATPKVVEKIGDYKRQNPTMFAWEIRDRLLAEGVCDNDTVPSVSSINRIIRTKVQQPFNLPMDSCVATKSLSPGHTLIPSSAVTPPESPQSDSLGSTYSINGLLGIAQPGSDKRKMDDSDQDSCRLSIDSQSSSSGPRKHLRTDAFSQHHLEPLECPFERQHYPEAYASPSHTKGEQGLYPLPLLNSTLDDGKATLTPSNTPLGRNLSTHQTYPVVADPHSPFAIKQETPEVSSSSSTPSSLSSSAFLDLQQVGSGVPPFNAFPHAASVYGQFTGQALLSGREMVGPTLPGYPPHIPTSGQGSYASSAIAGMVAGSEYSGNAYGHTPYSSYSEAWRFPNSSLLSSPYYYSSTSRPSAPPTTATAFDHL

[11] = Fluorescence-based cell-based high throughput dose response assay for inhibitors of the interaction of nucleotide-binding oligomerization domain containing 2 (NOD2) and the receptor-interacting serine-threonine kinase 2 (RIPK2).; assay type: functional; conditions: Homo sapiens
[12] = microbe, parasite or virus in culture; assay type: functional; conditions: Mycobacterium tuberculosis
[13] = A Cell Based Secondary Assay to Explore Cytotoxicity in HepG2 Cells of Compounds that Modulate Mycobacterium tuberculosis in Media Containing Glycerol versus Media without Glycerol (2).; assay type: functional
[14] = target: Sphingosine 1-phosphate receptor 1 (Homo sapiens, UniProt P21453); assay type: functional;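 also: Tango beta-arrestin reporter U2OS cells stimulated with S1P near its EC80; inhibitor potency meaning antagonism of receptor activation by the natural agonist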
Chain of Sphingosine 1-phosphate receptor 1 (P21453 whole entry): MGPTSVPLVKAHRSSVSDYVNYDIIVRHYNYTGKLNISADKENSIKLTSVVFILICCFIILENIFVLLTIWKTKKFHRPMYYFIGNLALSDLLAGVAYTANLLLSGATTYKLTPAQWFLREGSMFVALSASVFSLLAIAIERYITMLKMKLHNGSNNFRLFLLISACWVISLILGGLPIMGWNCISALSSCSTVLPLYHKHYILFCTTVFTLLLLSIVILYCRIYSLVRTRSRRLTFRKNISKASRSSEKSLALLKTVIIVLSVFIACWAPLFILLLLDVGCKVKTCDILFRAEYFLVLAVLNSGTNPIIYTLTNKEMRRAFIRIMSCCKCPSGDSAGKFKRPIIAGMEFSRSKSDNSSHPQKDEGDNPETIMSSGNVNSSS

[15] = inhibitors of intracellular T. cruzi replication, confirmation, NIH3T3 host cells, beta-gal luminescence (AID 2044); assay type: functional, cell-based;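 also: intracellular parasites grown in NIH/3T3 mouse fibroblasts as host cells; luminescent beta-galactosidase reporter signal from transgenic T. cruzi replicating inside host cells; inhibitors lower the luminescence signal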
[16] = Vero cell cytotoxicity, cytotoxicity control for M. tuberculosis inhibitor project, purified and synthesized samples, set 3 (AID 504684); assay type: functional
[17] = cytotoxicity toward NIH3T3 fibroblasts, dose response, counter-screen, cell-based, ATP luminescence, mouse fibroblasts (AID 2010); assay type: functional;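 also: cells exposed to compound for about 90 hours before reading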
[18] = reduction of Shn3 3'UTR firefly luciferase signal, dose response, Schnurri-3 inhibitor project, cell-based, Clone20 osteoblasts, cherry-pick, set 2 (AID 720490); assay type: functional;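 also: actives lower the luminescence signal as inhibitors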
[19] = C. albicans growth with fluconazole, confirmation, fluorescence, retest (AID 2467); assay type: functional, cell-based
[20] = NIH-3T3 fibroblast cytotoxicity, dose response, cytotoxicity control, cell-based, fluorescence, Alamar Blue, secondary assay (AID 2327); assay type: functional;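 also: NIH-3T3 mouse fibroblasts cultured with fluconazole at 8 µg/mL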
[21] = target: Macrophage colony-stimulating factor 1 receptor (Homo sapiens, UniProt P07333); assay type: functional;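 also: value comes from the Navigating the Kinome screening panel, CSF1R member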
Chain of Macrophage colony-stimulating factor 1 receptor (P07333 whole entry): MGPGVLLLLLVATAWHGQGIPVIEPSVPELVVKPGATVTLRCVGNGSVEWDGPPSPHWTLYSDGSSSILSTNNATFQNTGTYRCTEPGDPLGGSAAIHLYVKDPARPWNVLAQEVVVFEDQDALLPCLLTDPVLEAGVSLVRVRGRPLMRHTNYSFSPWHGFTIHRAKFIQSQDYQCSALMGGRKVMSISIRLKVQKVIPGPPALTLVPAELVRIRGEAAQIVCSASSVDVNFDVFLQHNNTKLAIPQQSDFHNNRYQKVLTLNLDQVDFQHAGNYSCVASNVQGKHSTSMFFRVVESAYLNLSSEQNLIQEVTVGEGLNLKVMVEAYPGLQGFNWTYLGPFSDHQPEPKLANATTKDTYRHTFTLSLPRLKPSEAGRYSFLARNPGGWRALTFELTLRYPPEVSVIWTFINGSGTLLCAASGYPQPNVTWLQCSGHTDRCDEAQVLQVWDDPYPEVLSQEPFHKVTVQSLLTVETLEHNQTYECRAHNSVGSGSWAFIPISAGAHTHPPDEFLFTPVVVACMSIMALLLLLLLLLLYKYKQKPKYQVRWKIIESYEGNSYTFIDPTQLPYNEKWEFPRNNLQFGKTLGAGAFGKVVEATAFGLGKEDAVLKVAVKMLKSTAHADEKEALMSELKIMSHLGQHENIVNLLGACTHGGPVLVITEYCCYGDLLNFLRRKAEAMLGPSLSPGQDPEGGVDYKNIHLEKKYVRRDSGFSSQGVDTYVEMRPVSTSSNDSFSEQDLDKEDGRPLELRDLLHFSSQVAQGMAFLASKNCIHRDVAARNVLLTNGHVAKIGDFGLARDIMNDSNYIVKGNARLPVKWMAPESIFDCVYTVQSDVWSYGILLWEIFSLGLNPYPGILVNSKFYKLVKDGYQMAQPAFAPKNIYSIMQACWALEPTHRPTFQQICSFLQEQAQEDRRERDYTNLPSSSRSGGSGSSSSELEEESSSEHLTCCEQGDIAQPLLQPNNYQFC

[22] = target: Dual specificity protein kinase CLK4 (Homo sapiens, UniProt Q9HAZ1); assay type: functional
Chain of Dual specificity protein kinase CLK4 (Q9HAZ1 whole entry): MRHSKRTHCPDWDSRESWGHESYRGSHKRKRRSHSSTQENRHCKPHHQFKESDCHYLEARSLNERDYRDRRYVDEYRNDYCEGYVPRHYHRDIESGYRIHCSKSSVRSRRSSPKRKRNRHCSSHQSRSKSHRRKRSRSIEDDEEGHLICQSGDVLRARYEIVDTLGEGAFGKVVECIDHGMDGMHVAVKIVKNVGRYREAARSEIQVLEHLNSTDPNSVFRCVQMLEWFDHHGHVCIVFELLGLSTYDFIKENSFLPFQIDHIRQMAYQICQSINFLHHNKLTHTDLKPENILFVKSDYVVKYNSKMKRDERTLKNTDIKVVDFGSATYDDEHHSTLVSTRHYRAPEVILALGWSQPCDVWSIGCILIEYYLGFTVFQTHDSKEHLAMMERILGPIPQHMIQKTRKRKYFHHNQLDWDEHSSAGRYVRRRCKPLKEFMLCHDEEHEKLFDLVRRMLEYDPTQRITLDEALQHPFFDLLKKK

[23] = target: Vascular endothelial growth factor receptor 2 (Homo sapiens, UniProt P35968); assay type: functional
[24] = target: Cyclin-dependent kinase 19 (Homo sapiens, UniProt Q9BWU1); assay: Navigating the Kinome. Panel member name: CDC2L6; assay type: functional
Chain of Cyclin-dependent kinase 19 (Q9BWU1 whole entry): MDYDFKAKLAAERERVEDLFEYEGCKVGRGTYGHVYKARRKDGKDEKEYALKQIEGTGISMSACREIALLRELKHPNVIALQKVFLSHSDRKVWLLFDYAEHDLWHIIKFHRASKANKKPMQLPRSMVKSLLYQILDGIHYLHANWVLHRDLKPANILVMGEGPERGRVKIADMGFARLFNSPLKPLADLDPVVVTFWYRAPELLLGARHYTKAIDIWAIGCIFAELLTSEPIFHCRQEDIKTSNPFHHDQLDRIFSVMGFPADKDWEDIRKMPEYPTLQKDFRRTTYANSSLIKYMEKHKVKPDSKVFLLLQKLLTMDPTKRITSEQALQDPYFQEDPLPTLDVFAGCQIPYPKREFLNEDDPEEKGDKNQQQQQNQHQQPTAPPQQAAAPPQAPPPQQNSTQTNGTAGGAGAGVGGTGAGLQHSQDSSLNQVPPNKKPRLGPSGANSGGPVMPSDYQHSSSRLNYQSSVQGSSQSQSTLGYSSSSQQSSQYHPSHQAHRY

[25] = target: Benomyl/methotrexate resistance protein (Candida albicans, UniProt P28873); assay: CaMdr1 efflux pump inhibitor potency, dose response, singleplex, Cherry Pick1 hits (AID 588608); assay type: functional
Chain of Benomyl/methotrexate resistance protein (P28873 whole entry): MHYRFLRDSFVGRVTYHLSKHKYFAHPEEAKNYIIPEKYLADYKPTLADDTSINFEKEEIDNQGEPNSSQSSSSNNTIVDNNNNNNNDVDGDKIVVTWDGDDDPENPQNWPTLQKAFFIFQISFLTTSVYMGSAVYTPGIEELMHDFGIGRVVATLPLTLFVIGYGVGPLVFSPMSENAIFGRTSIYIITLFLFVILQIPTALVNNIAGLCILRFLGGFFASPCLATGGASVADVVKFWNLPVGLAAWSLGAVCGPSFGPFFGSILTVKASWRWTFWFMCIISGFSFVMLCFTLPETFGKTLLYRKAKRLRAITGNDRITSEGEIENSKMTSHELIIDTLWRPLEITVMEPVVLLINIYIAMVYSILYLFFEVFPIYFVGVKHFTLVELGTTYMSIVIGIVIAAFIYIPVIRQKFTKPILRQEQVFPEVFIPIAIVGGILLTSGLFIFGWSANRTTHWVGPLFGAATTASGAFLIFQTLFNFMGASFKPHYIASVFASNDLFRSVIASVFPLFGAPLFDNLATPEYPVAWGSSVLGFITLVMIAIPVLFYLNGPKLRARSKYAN

[26] = target: Multidrug resistance protein CDR1 (Candida albicans, UniProt P43071); assay: CaCdr1 efflux pump inhibitor potency, dose response, singleplex, Cherry Pick2 set (AID 623996); assay type: functional; conditions: read-out: EC50_MICROM
Chain of Multidrug resistance protein CDR1 (P43071 whole entry, looked up): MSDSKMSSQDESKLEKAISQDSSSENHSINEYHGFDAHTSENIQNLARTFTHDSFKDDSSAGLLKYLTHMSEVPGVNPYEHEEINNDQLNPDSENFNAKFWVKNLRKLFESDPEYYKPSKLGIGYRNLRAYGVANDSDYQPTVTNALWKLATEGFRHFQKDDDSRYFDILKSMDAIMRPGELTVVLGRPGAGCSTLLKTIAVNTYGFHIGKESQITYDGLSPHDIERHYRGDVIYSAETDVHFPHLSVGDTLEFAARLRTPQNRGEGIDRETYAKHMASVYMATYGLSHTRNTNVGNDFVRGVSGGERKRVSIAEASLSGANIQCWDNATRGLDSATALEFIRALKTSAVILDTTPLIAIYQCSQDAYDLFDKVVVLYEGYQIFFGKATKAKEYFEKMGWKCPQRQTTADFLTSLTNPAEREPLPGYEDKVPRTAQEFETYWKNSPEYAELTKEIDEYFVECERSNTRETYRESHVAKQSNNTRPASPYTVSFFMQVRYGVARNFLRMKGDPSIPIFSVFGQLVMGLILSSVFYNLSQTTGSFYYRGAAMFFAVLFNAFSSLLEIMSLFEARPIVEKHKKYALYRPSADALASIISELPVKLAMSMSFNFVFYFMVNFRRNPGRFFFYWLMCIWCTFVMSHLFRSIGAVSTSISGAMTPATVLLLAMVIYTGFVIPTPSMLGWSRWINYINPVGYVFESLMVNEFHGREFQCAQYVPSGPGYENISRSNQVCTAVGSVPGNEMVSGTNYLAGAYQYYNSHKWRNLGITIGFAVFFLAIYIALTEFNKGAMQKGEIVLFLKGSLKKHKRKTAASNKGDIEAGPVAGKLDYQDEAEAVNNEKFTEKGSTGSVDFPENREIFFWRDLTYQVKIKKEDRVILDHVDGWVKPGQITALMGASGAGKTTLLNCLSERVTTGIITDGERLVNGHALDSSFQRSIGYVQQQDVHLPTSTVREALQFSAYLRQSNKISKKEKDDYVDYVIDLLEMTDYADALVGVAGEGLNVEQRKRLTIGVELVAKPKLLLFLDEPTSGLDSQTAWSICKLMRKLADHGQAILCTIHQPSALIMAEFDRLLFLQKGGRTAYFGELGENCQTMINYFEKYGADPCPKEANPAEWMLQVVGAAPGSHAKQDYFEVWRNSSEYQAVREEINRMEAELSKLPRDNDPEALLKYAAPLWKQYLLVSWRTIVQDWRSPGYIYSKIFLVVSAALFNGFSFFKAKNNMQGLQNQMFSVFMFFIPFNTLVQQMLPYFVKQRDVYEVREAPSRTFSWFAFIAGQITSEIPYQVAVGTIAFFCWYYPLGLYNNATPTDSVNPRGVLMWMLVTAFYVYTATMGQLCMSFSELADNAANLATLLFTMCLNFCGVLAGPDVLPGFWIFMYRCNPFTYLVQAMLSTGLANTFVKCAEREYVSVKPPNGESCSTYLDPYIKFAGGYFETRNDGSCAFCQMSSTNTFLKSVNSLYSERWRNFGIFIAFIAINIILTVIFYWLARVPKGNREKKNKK

O=C(O)C1CC(c2c(F)cccc2Cl)=NO1 (stereo not drawn)
inactive: EC50 [1] > 100 µM | EC50 [2] > 100 µM

CCOC(=O)c1ccc(NC(=O)Cn2ncc(Cl)c(Cl)c2=O)cc1
inconclusive: EC50 [20] 2.69 µM
active: AC50 [3] 2.32 µM | AC50 [4] 12.1 µM | AC50 [5] 14.1 µM | AC50 [6] 5.4 µM | CC50 [7] 1.62 µM | IC50 [8] 1.47 µM | AC50 [9] 46 µM | AC50 [10] 3.72 µM | EC50 (Protein RecA) 3.77 µM | AC50 (Paired box protein Pax-8) 6.64 µM | IC50 [11] 1.77 µM | CC50 [12] 6.68 µM | CC50 [13] 8.45 µM | IC50 [14] 9.77 µM | EC50 [15] 2.06 µM | CC50 [16] 3.21 µM | EC50 [17] 1.96 µM | AC50 [18] 3.69 µM | EC50 [19] 0.582 µM

N#Cc1cnn2c(-c3ccccc3)ccnc12
active: Ki [22] 10 µM
inactive: Ki [21] > 100 µM | Ki [23] > 100 µM | Ki [24] > 100 µM

CC(C)C(=O)N1CCC2(CC1)Oc1ccc(F)cc1C(=O)C21CC(c2ccccc2)=NO1 (stereo not drawn)
active: EC50 [25] 12.5 µM | EC50 [26] 23.9 µM
